Measurements: patent US11718616B2, “JAK kinase inhibitor compounds for treatment of respiratory disease” (THERAVANCE BIOPHARMA R&D IP, LLC, priority 2015, dated 2023)

How the values were obtained:
[1] = test system: IL-13 induced pSTAT6 induction in lung tissue; assay: Murine model of IL-13 induced pSTAT6 induction in lung tissue; type: in vivo, mouse; details: for pSTAT6 inhibition in the pharmacodynamic assay: mouse lung, Assay 5 conditions; for lung concentration smaller than that of the corresponding compound of the invention by a factor of: mouse lung in pharmacodynamic assay, C-1 vs Example 1, C-2 vs 7, C-3 vs 13, C-4 vs 6
Method: Il-13 is an important cytokine underlying the pathophysiology of asthma (Kudlacz et al. Eur. J Pharmacol, 2008, 582, 154-161). IL-13 binds to cell surface receptors activating members of the Janus family of kinases (JAK) which then phosphorylate STAT6 and subsequently activates further transcription pathways. In the described model, a dose of IL-13 was delivered locally into the lungs of mice to induce the phosphorylation of STAT6 (pSTAT6) which is then measured as the endpoint.
Adult balb/c mice from Harlan were used in the assay. On the day of study, animals were lightly anesthetized with isoflurane and administered either vehicle or test compound (0.5 mg/mL, 50 μL total volume over several breaths) via oral aspiration. Animals were placed in lateral recumbency post dose and monitored for full recovery from anesthesia before being returned to their home cage. Four hours later, animals were once again briefly anesthetized and challenged with either vehicle or IL-13 (0.03 μg total dose delivered, 50 μL total volume) via oral aspiration before being monitored for recovery from anesthesia and returned to their home cage. One hour after vehicle or IL-13 administration, lungs were collected for both pSTAT6 detection using an anti-pSTAT6 ELISA (rabbit mAb capture/coating antibody; mouse mAb detection/report antibody: anti-pSTAT6-pY641; secondary antibody: anti-mouse IgG-HRP) and analyzed for total drug concentration as described above in Assay 4.
Selected compounds of the invention were tested in the assay. Activity in the model is evidenced by a decrease in the level of pSTAT6 present in the lungs of treated animals at 5 hours compared to the vehicle treated, IL-13 challenged control animals. The difference between the control animals which were vehicle-treated, IL-13 challenged and the control animals which were vehicle-treated, vehicle challenged dictated the 0% and 100% inhibitory effect, respectively, in any given experiment.

JAK1 = JAK1 (Homo sapiens (Human), UniProt P23458); assay: LanthaScreen JAK biochemical assay, JAK1; details: C-1 vs Example 1, C-2 vs 7, C-3 vs 13, C-4 vs 6
[2] = Dynamic moisture sorption assessment; type: physicochemical; details: humidity range of 5% to 90% relative humidity, about 25° C.
Method: Dynamic moisture sorption (DMS) measurement was performed using a VTI atmospheric microbalance, SGA-100 system (VTI Corp., Hialeah, Fla. 33016). A weighed sample was used and the humidity was lowest possible value (close to 0% RH) at the start of the analysis. The DMS analysis consisted of an initial drying step (˜0% RH) for 120 minutes, followed by two cycles of sorption and desorption with a scan rate of 5% RH/step over the humidity range of 5% RH to 90% RH. The DMS run was performed isothermally at 25° C.

JAK1, sequence (P23458 whole entry): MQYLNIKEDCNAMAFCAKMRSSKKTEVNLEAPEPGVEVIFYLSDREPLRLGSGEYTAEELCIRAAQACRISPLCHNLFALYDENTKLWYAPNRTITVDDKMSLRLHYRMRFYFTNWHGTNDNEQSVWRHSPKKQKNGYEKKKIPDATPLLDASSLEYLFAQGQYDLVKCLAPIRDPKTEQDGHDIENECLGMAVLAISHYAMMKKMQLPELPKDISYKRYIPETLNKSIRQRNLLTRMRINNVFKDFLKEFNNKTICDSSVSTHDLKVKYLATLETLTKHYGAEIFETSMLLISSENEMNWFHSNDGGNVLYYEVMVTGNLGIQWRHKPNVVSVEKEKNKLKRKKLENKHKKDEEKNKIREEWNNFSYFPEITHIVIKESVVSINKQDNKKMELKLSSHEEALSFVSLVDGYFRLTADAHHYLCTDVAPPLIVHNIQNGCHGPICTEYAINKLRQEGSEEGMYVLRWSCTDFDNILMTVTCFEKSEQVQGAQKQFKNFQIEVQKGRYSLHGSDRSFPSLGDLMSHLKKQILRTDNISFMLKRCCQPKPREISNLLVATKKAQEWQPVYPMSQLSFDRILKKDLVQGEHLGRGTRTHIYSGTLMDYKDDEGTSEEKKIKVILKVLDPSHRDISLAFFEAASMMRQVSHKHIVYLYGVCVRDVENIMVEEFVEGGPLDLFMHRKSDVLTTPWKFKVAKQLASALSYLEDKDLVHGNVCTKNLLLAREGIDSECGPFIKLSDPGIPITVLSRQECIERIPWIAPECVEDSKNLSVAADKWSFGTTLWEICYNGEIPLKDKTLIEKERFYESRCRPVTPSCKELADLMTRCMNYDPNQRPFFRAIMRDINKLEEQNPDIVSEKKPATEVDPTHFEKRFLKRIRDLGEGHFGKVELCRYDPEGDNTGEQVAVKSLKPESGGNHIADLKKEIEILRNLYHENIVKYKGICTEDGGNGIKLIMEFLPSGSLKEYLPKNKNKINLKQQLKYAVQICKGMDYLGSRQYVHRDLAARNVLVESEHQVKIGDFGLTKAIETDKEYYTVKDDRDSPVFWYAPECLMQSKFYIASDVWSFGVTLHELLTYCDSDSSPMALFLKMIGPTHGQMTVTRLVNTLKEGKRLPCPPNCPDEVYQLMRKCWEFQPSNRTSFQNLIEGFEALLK

| weight gain (weight change) on moisture sorption [2] | Compound | pSTAT6 inhibition in the pharmacodynamic assay [1] | fold less potent than the corresponding compound of the invention in the enzyme assay (JAK1) [fold] | lung concentration smaller than that of the corresponding compound of the invention by a factor of [1] |
| --- | --- | --- | --- | --- |
|  | CCc1cc(O)c(F)cc1-c1ccc2c(-c3nc4c([nH]3)CCN(C3CN(C5CCS(=O)(=O)C5)C3)C4)n[nH]c2c1 (centres unmarked) [Example 1-15] | exceptions |  |  |
|  | CCc1cc(O)c(F)cc1-c1ccc2c(-c3nc4c([nH]3)CCN(CCNC3(C#N)CC3)C4)n[nH]c2c1 [Example 3-1] | exceptions |  |  |
|  | CCc1cc(O)c(F)cc1-c1ccc2c(-c3nc4c([nH]3)CCN(C3CC(C)C3)C4)n[nH]c2c1 (centres unmarked) [Example C-1, 5-Ethyl-2-fluoro-4-(3-(5-(3-methylcyclobutyl)-4,5,6,7-tetrahydro-1H-imidazo[4,5-c]pyridin-2-yl)-1H-indazol-6-yl)phenol] |  | 2 | 36 |
|  | CCc1cc(O)c(F)cc1-c1ccc2c(-c3nc4c([nH]3)CCN(CCC(C)C)C4)n[nH]c2c1 [Example C-2] |  | 3 | 52 |
|  | CCc1cc(O)c(F)cc1-c1ccc2c(-c3nc4c([nH]3)CCN(CC3CCCOC3)C4)n[nH]c2c1 (centres unmarked) [Example C-3] |  | 6 | 13 |
|  | CCc1cc(O)c(F)cc1-c1ccc2c(-c3nc4c([nH]3)CCN(C3CCC(C)CC3)C4)n[nH]c2c1 (centres unmarked) [Example C-4] |  | 2.5 | 23 |
| less than 0.12% | CCc1cc(O)c(F)cc1-c1ccc2c(-c3nc4c([nH]3)CCN(C3CCN(C)CC3)C4)n[nH]c2c1 [crystalline hydrate, 5-ethyl-2-fluoro-4-(3-(5-(1-methylpiperidin-4-yl)-4,5,6,7-tetrahydro-1H-imidazo[4,5-c]pyridin-2-yl)-1H-indazol-6-yl)phenol] |  |  |  |
